Measurements from ChEMBL document CHEMBL1153012, “Synthesis and antibacterial activity of novel 5-(4-methyl-1H-1,2,3-triazole) methyl oxazolidinones” (2009).
Values after ≈ are worked out from the molar mass of the structure shown.

What was measured:
Format in all cases: functional
Staphylococcus aureus [1] = experiment: Antibacterial activity against Staphylococcus aureus ATCC 25923 by agar dilution method
Staphylococcus aureus [2] = experiment: Antibacterial activity against Staphylococcus aureus ATCC 25923 by agar dilution method in presence of human plasma; conditions: ATCC 25923, Plasma
Staphylococcus aureus [3] = experiment: Antibacterial activity against methicillin-susceptible Staphylococcus aureus by agar dilution method
Staphylococcus aureus [4] = experiment: Antibacterial activity against methicillin-resistant Staphylococcus aureus by agar dilution method
Staphylococcus [5] = experiment: Antibacterial activity against methicillin-sensitive coagulase-negative Staphylococcus by agar dilution method
Staphylococcus [6] = experiment: Antibacterial activity against methicillin resistant coagulase-negative Staphylococcus by agar dilution method
Streptococcus pneumoniae = experiment: Antibacterial activity against Streptococcus pneumoniae by agar dilution method
Enterococcus [7] = experiment: Antibacterial activity against vancomycin-sensitive Enterococcus by agar dilution method
Enterococcus [8] = experiment: Antibacterial activity against vancomycin-resistant Enterococcus by agar dilution method
Haemophilus influenzae [9] = experiment: Antibacterial activity against Haemophilus influenzae ATCC 49247 by agar dilution method
Haemophilus influenzae [10] = experiment: Antibacterial activity against Haemophilus influenzae isolate 280 by agar dilution method
Haemophilus influenzae [11] = experiment: Antibacterial activity against Haemophilus influenzae isolate 282 by agar dilution method
Haemophilus influenzae [12] = experiment: Antibacterial activity against Haemophilus influenzae isolate 283 by agar dilution method
Haemophilus influenzae [13] = experiment: Antibacterial activity against Haemophilus influenzae isolate 285 by agar dilution method
Moraxella catarrhalis = experiment: Antibacterial activity against Moraxella catarrhalis by agar dilution method
Escherichia coli = experiment: Antibacterial activity against Escherichia coli ATCC 25922 by agar dilution method

Cc1cn(C[C@H]2CN(c3ccc(N4CCN(C(=O)C(F)(F)F)CC4)c(F)c3)C(=O)O2)nn1
MIC (Staphylococcus aureus [1]): 4 µg/mL (≈ 8.76 µM)
MIC (Staphylococcus aureus [2]): 8 µg/mL
MIC (Staphylococcus aureus [3]): 1 µg/mL (≈ 2.19 µM)
MIC (Staphylococcus aureus [4]): 2 µg/mL (≈ 4.38 µM)
MIC (Staphylococcus [5]): 1 µg/mL (≈ 2.19 µM)
MIC (Staphylococcus [6]): 1 µg/mL (≈ 2.19 µM)
MIC (Streptococcus pneumoniae): 1 µg/mL (≈ 2.19 µM)
MIC (Enterococcus [7]): 1 µg/mL (≈ 2.19 µM)
MIC (Enterococcus [8]): 1 µg/mL (≈ 2.19 µM)
MIC (Haemophilus influenzae [9]): 64 µg/mL (≈ 140 µM)
MIC (Haemophilus influenzae [10]): 64 µg/mL (≈ 140 µM)
MIC (Haemophilus influenzae [11]): 64 µg/mL (≈ 140 µM)
MIC (Haemophilus influenzae [12]): 64 µg/mL (≈ 140 µM)
MIC (Haemophilus influenzae [13]): 64 µg/mL (≈ 140 µM)
MIC (Moraxella catarrhalis): 8 µg/mL (≈ 17.5 µM)
MIC (Escherichia coli): 8 µg/mL (≈ 17.5 µM)

Cc1cn(C[C@H]2CN(c3ccc(N4CCN(C=O)CC4)c(F)c3)C(=O)O2)nn1
MIC (Staphylococcus aureus [1]): 2 µg/mL (≈ 5.15 µM)
MIC (Staphylococcus aureus [2]): 8 µg/mL
MIC (Staphylococcus aureus [3]): 1 µg/mL (≈ 2.57 µM)
MIC (Staphylococcus aureus [4]): 1 µg/mL (≈ 2.57 µM)
MIC (Staphylococcus [5]): 1 µg/mL (≈ 2.57 µM)
MIC (Staphylococcus [6]): 1 µg/mL (≈ 2.57 µM)
MIC (Streptococcus pneumoniae): 1 µg/mL (≈ 2.57 µM)
MIC (Enterococcus [7]): 1 µg/mL (≈ 2.57 µM)
MIC (Enterococcus [8]): 1 µg/mL (≈ 2.57 µM)
MIC (Haemophilus influenzae [9]): 64 µg/mL (≈ 165 µM)
MIC (Haemophilus influenzae [10]): 64 µg/mL (≈ 165 µM)
MIC (Haemophilus influenzae [11]): 64 µg/mL (≈ 165 µM)
MIC (Haemophilus influenzae [12]): 64 µg/mL (≈ 165 µM)
MIC (Haemophilus influenzae [13]): 64 µg/mL (≈ 165 µM)
MIC (Moraxella catarrhalis): 8 µg/mL (≈ 20.6 µM)
MIC (Escherichia coli): > 64 µg/mL

Cc1cn(C[C@H]2CN(c3ccc(N4CCN(C(=O)C5CCCCC5)CC4)c(F)c3)C(=O)O2)nn1
MIC (Staphylococcus aureus [1]): 2 µg/mL (≈ 4.25 µM)
MIC (Staphylococcus aureus [2]): 32 µg/mL
MIC (Staphylococcus aureus [3]): 1 µg/mL (≈ 2.13 µM)
MIC (Staphylococcus aureus [4]): 2 µg/mL (≈ 4.25 µM)
MIC (Staphylococcus [5]): 1 µg/mL (≈ 2.13 µM)
MIC (Staphylococcus [6]): 1 µg/mL (≈ 2.13 µM)
MIC (Streptococcus pneumoniae): 4 µg/mL (≈ 8.5 µM)
MIC (Enterococcus [7]): 1 µg/mL (≈ 2.13 µM)
MIC (Enterococcus [8]): 1 µg/mL (≈ 2.13 µM)
MIC (Haemophilus influenzae [9]): 32 µg/mL (≈ 68 µM)
MIC (Haemophilus influenzae [10]): 32 µg/mL (≈ 68 µM)
MIC (Haemophilus influenzae [11]): 32 µg/mL (≈ 68 µM)
MIC (Haemophilus influenzae [12]): 32 µg/mL (≈ 68 µM)
MIC (Haemophilus influenzae [13]): 32 µg/mL (≈ 68 µM)
MIC (Moraxella catarrhalis): 32 µg/mL (≈ 68 µM)
MIC (Escherichia coli): > 64 µg/mL

Cc1cn(C[C@H]2CN(c3ccc(N4CCN(C(=O)CC5CC6CCC5C6)CC4)c(F)c3)C(=O)O2)nn1 (stereo partly drawn)
MIC (Staphylococcus aureus [1]): 4 µg/mL (≈ 8.05 µM)
MIC (Staphylococcus aureus [2]): > 64 µg/mL
MIC (Staphylococcus aureus [3]): 2 µg/mL (≈ 4.03 µM)
MIC (Staphylococcus aureus [4]): 4 µg/mL (≈ 8.05 µM)
MIC (Staphylococcus [5]): 2 µg/mL (≈ 4.03 µM)
MIC (Staphylococcus [6]): 2 µg/mL (≈ 4.03 µM)
MIC (Streptococcus pneumoniae): 16 µg/mL (≈ 32.2 µM)
MIC (Enterococcus [7]): 2 µg/mL (≈ 4.03 µM)
MIC (Enterococcus [8]): 2 µg/mL (≈ 4.03 µM)
MIC (Haemophilus influenzae [9]): > 64 µg/mL
MIC (Haemophilus influenzae [10]): > 64 µg/mL
MIC (Haemophilus influenzae [11]): > 64 µg/mL
MIC (Haemophilus influenzae [12]): > 64 µg/mL
MIC (Haemophilus influenzae [13]): > 64 µg/mL
MIC (Moraxella catarrhalis): 64 µg/mL (≈ 129 µM)
MIC (Escherichia coli): > 64 µg/mL

Cc1cn(C[C@H]2CN(c3ccc(N4CCN(C(=O)Cc5ccccc5)CC4)c(F)c3)C(=O)O2)nn1
MIC (Staphylococcus aureus [1]): 4 µg/mL (≈ 8.36 µM)
MIC (Staphylococcus aureus [2]): > 64 µg/mL
MIC (Staphylococcus aureus [3]): 2 µg/mL (≈ 4.18 µM)
MIC (Staphylococcus aureus [4]): 2 µg/mL (≈ 4.18 µM)
MIC (Staphylococcus [5]): 2 µg/mL (≈ 4.18 µM)
MIC (Staphylococcus [6]): 2 µg/mL (≈ 4.18 µM)
MIC (Streptococcus pneumoniae): 2 µg/mL (≈ 4.18 µM)
MIC (Enterococcus [7]): 2 µg/mL (≈ 4.18 µM)
MIC (Enterococcus [8]): 1 µg/mL (≈ 2.09 µM)
MIC (Haemophilus influenzae [9]): > 64 µg/mL
MIC (Haemophilus influenzae [10]): > 64 µg/mL
MIC (Haemophilus influenzae [11]): > 64 µg/mL
MIC (Haemophilus influenzae [12]): > 64 µg/mL
MIC (Haemophilus influenzae [13]): > 64 µg/mL
MIC (Moraxella catarrhalis): 16 µg/mL (≈ 33.4 µM)
MIC (Escherichia coli): > 64 µg/mL

CCSC(=O)N1CCN(c2ccc(N3C[C@H](Cn4cc(C)nn4)OC3=O)cc2F)CC1
MIC (Staphylococcus aureus [1]): 2 µg/mL (≈ 4.46 µM)
MIC (Staphylococcus aureus [2]): 64 µg/mL
MIC (Staphylococcus aureus [3]): 1 µg/mL (≈ 2.23 µM)
MIC (Staphylococcus aureus [4]): 1 µg/mL (≈ 2.23 µM)
MIC (Staphylococcus [5]): 1 µg/mL (≈ 2.23 µM)
MIC (Staphylococcus [6]): 1 µg/mL (≈ 2.23 µM)
MIC (Streptococcus pneumoniae): 2 µg/mL (≈ 4.46 µM)
MIC (Enterococcus [7]): 1 µg/mL (≈ 2.23 µM)
MIC (Enterococcus [8]): 1 µg/mL (≈ 2.23 µM)
MIC (Haemophilus influenzae [9]): > 64 µg/mL
MIC (Haemophilus influenzae [10]): > 64 µg/mL
MIC (Haemophilus influenzae [11]): > 64 µg/mL
MIC (Haemophilus influenzae [12]): > 64 µg/mL
MIC (Haemophilus influenzae [13]): > 64 µg/mL
MIC (Moraxella catarrhalis): 16 µg/mL (≈ 35.7 µM)
MIC (Escherichia coli): > 64 µg/mL

Cc1cn(C[C@H]2CN(c3ccc(N4CCNCC4)c(F)c3)C(=O)O2)nn1.O=C(O)C(F)(F)F
MIC (Staphylococcus aureus [1]): 4 µg/mL
MIC (Staphylococcus aureus [2]): 32 µg/mL
MIC (Staphylococcus aureus [3]): 4 µg/mL
MIC (Staphylococcus aureus [4]): 4 µg/mL
MIC (Staphylococcus [5]): 4 µg/mL
MIC (Staphylococcus [6]): 4 µg/mL
MIC (Streptococcus pneumoniae): 2 µg/mL
MIC (Enterococcus [7]): 4 µg/mL
MIC (Enterococcus [8]): 8 µg/mL
MIC (Haemophilus influenzae [9]): 32 µg/mL
MIC (Haemophilus influenzae [10]): 32 µg/mL
MIC (Haemophilus influenzae [11]): 32 µg/mL
MIC (Haemophilus influenzae [12]): 32 µg/mL
MIC (Haemophilus influenzae [13]): 32 µg/mL
MIC (Moraxella catarrhalis): 16 µg/mL
MIC (Escherichia coli): > 64 µg/mL

CC(=O)N1CCN(c2ccc(N3C[C@H](Cn4cc(C)nn4)OC3=O)cc2F)CC1
MIC (Staphylococcus aureus [1]): 2 µg/mL (≈ 4.97 µM)
MIC (Staphylococcus aureus [2]): 8 µg/mL
MIC (Staphylococcus aureus [3]): 1 µg/mL (≈ 2.48 µM)
MIC (Staphylococcus aureus [4]): 1 µg/mL (≈ 2.48 µM)
MIC (Staphylococcus [5]): 1 µg/mL (≈ 2.48 µM)
MIC (Staphylococcus [6]): 1 µg/mL (≈ 2.48 µM)
MIC (Streptococcus pneumoniae): 1 µg/mL (≈ 2.48 µM)
MIC (Enterococcus [7]): 1 µg/mL (≈ 2.48 µM)
MIC (Enterococcus [8]): 1 µg/mL (≈ 2.48 µM)
MIC (Haemophilus influenzae [9]): 64 µg/mL (≈ 159 µM)
MIC (Haemophilus influenzae [10]): 64 µg/mL (≈ 159 µM)
MIC (Haemophilus influenzae [11]): 64 µg/mL (≈ 159 µM)
MIC (Haemophilus influenzae [12]): 64 µg/mL (≈ 159 µM)
MIC (Haemophilus influenzae [13]): 64 µg/mL (≈ 159 µM)
MIC (Moraxella catarrhalis): 8 µg/mL (≈ 19.9 µM)
MIC (Escherichia coli): > 64 µg/mL
